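Each compound was tested at five concentrations against cells in 96-well plates for 48 hours. Here, GI50 denotes the concentration required for 50% inhibition of growth.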 Calls of active or inactive are those of the source. Cut-off read from the data, not from the text of the source: active = GI50 up to about 1.1 µM and inactive = higher. A value given as a limit tells only on which side of the number the result lay.

The record followed here is ChEMBL document CHEMBL1201862, “PubChem BioAssay data set” (2004).

Test systems include OVCAR-5; NCI-H522; A498; SNB-19; SN12C; SK-OV-3; KM12; NCI-H23; CAKI-1; HCT-116; SF-539; M19-MEL; UACC-62; OVCAR-8; M14; RPMI-8226; MDA-N; MCF7; BT-549; MDA-MB-435.
Test in all cases: NCI anticancer screen, dose series, 48 h

Consider `C[Si](C)(C)c1ccc(CC2(Cc3ccc([Si](C)(C)C)cc3)CCNC2)cc1`, for which the GI50 with OVCAR-5 was 4.67 µM (inactive); in the assay on NCI-H522, 1.78 µM (inactive); in the assay on A498, 1.55 µM (inactive); in the assay on SNB-19, 4 µM (inactive); in the assay with SN12C it was 1.71 µM (inactive); with SK-OV-3 it was 1.63 µM (inactive). For the same compound, the GI50 with KM12 was 1.99 µM (inactive); in the assay on NCI-H23, 1.97 µM (inactive); in the assay with CAKI-1, 2.39 µM (inactive); with HCT-116, 1.69 µM (inactive); in the assay with SF-539, 3.34 µM (inactive); with M19-MEL, 1.95 µM (inactive). Also, the GI50 in the assay with UACC-62 was 2.02 µM (inactive); in the assay on OVCAR-8, 1.85 µM (inactive); in the assay with M14, 1.76 µM (inactive).
`CN(C)C(=O)OC(Cn1cncn1)c1ccc(Cl)cc1Cl` (centres undefined): the GI50 is > 100 µM (inactive) in the assay on RPMI-8226; > 100 µM (inactive) in the assay with OVCAR-5; 53.5 µM (inactive) in the assay with NCI-H522; > 100 µM (inactive) with A498; > 100 µM (inactive) in the assay on SNB-19; > 100 µM (inactive) in the assay with SN12C. Further, the GI50 in the assay on SK-OV-3, in the assay on KM12, in the assay on NCI-H23, in the assay with CAKI-1, in the assay on HCT-116 and with SF-539 was > 100 µM (inactive) each time. The GI50 in the assay with M19-MEL, in the assay on UACC-62, in the assay on OVCAR-8 and in the assay with M14 was > 100 µM (inactive) throughout.
In the case of `CCCCCCCCCCCOC(=S)NC(C)C`, the GI50 was 14 µM (inactive) with RPMI-8226; 24.7 µM (inactive) in the assay on OVCAR-5; 18.2 µM (inactive) in the assay on NCI-H522; 19.6 µM (inactive) with A498; 29.6 µM (inactive) in the assay with SNB-19; 16.1 µM (inactive) in the assay on SN12C. The GI50 is 19.3 µM (inactive) with SK-OV-3; 19.7 µM (inactive) in the assay on KM12; 19.3 µM (inactive) in the assay with NCI-H23; 19 µM (inactive) with CAKI-1; 17.5 µM (inactive) in the assay on HCT-116; 18.3 µM (inactive) with SF-539. Further, the GI50 in the assay with M19-MEL was 24.9 µM (inactive); with UACC-62, 15.5 µM (inactive); with OVCAR-8 it was 16.6 µM (inactive); in the assay with M14 it was 23.2 µM (inactive).
On to `CCCCCCCCCCCCCC(=S)N/C=C/OC`, for which the GI50 in the assay with RPMI-8226 was 23.6 µM (inactive); with OVCAR-5, > 100 µM (inactive); in the assay on NCI-H522, 20.3 µM (inactive); with A498, 23.2 µM (inactive); in the assay on SNB-19 it was 45.9 µM (inactive); in the assay on SN12C, 34.9 µM (inactive). For the same compound, the GI50 is > 100 µM (inactive) in the assay on SK-OV-3; 28.2 µM (inactive) in the assay on KM12; 28.2 µM (inactive) with NCI-H23; 30.5 µM (inactive) in the assay on HCT-116; 66.5 µM (inactive) in the assay with SF-539; 31.1 µM (inactive) in the assay with M19-MEL. In addition, the results for the GI50 in the assay on UACC-62, in the assay with OVCAR-8 and in the assay with M14 were 20.7 µM (inactive), 38 µM (inactive) and 35.3 µM (inactive), respectively.
For the compound `COc1ccc(C2Oc3ccc(O)cc3[C@@H]2C)cc1OC` (some centres undefined), the GI50 in the assay on RPMI-8226 is 4.05 µM (inactive); with OVCAR-5 it was > 100 µM (inactive); in the assay with NCI-H522, 27.5 µM (inactive); in the assay with SNB-19, > 100 µM (inactive); with SK-OV-3 it was > 100 µM (inactive); with KM12, > 100 µM (inactive). For the same compound, the GI50 is 94.6 µM (inactive) in the assay with NCI-H23; 18.9 µM (inactive) in the assay with CAKI-1; > 100 µM (inactive) in the assay with HCT-116; > 100 µM (inactive) in the assay on SF-539; > 100 µM (inactive) in the assay with M19-MEL; > 100 µM (inactive) with UACC-62. Also, the GI50 in the assay with OVCAR-8 and in the assay with M14 was > 100 µM (inactive) each time.
In the case of `CN(CC(=O)O)S(=O)(=O)c1ccc(Cl)cc1`, the GI50 in the assay on RPMI-8226, in the assay with OVCAR-5, in the assay on NCI-H522, in the assay with A498, with SNB-19 and with SN12C was > 100 µM (inactive) each time. The GI50 in the assay on SK-OV-3, in the assay with KM12, with NCI-H23, in the assay with CAKI-1, in the assay with SF-539 and in the assay on M19-MEL was > 100 µM (inactive) each time. Further, the GI50 in the assay with UACC-62, with OVCAR-8 and in the assay with M14 was > 100 µM (inactive) each time.
As to `Cc1nn(-c2nc3ccccc3s2)c2c1C(=O)c1ccccc1-2`, the GI50 in the assay with RPMI-8226, in the assay on OVCAR-5, in the assay on NCI-H522, in the assay on A498, in the assay with SNB-19 and in the assay on SN12C was > 100 µM (inactive) each time. The GI50 in the assay with SK-OV-3, in the assay on KM12, with NCI-H23, in the assay with HCT-116, with SF-539 and in the assay with M19-MEL was > 100 µM (inactive) in each case. Moreover, the GI50 with UACC-62 and in the assay with M14 was > 100 µM (inactive) in each case.
Take `NC1N=Nc2ccccc21` (centres undefined): the GI50 with RPMI-8226, with OVCAR-5, in the assay on NCI-H522, in the assay with SNB-19, in the assay on SN12C and in the assay with SK-OV-3 was > 100 µM (inactive) each time. In addition, the GI50 in the assay on KM12, in the assay with NCI-H23, with CAKI-1, in the assay on HCT-116, in the assay with SF-539 and in the assay with M19-MEL was > 100 µM (inactive) in each case. Besides, the GI50 in the assay with OVCAR-8 and in the assay with M14 was > 100 µM (inactive) each time.
Turning to `COc1cccc(C2=NC(C(C)C)CO2)c1` (centres undefined), the GI50 in the assay with RPMI-8226, with OVCAR-5, in the assay with NCI-H522, with A498, with SNB-19 and in the assay on SN12C was > 100 µM (inactive) in each case. The GI50 in the assay on SK-OV-3, in the assay with KM12, in the assay on NCI-H23, with CAKI-1, in the assay with SF-539 and in the assay on M19-MEL was > 100 µM (inactive) each time. The GI50 with UACC-62, with OVCAR-8 and in the assay with M14 was > 100 µM (inactive) throughout.
Regarding `N#CCCN(c1ccc(/C=N/c2ccccc2)cc1)S(=O)(=O)c1ccccc1`, the GI50 in the assay on RPMI-8226, with NCI-H522, in the assay with A498, in the assay on SNB-19, in the assay on SN12C and with SK-OV-3 was > 100 µM (inactive) in each case. Besides, the GI50 was 16.5 µM (inactive) with KM12; > 100 µM (inactive) with NCI-H23; > 100 µM (inactive) with CAKI-1; > 100 µM (inactive) with HCT-116; > 100 µM (inactive) in the assay on SF-539; > 100 µM (inactive) with M19-MEL. Further, the GI50 in the assay with UACC-62 was 3.27 µM (inactive); in the assay with OVCAR-8 it was > 100 µM (inactive); with M14, 8.93 µM (inactive).
For `COc1ccc2c(c1OC)C(=O)C2`, the GI50 in the assay on RPMI-8226, in the assay with NCI-H522, in the assay on SNB-19, in the assay on SN12C, in the assay on SK-OV-3 and with KM12 was > 100 µM (inactive) each time. Besides, the GI50 in the assay with NCI-H23, in the assay on HCT-116, in the assay with M19-MEL, in the assay with UACC-62, in the assay on OVCAR-8 and in the assay on M14 was > 100 µM (inactive) each time.
As for `COC1OC(C)C(OC(=O)C(C)(C)C)C(OS(=O)(=O)c2ccc(C)cc2)C1OS(=O)(=O)c1ccc(C)cc1` (centres undefined), the GI50 with RPMI-8226, in the assay on OVCAR-5, in the assay on NCI-H522, in the assay on SNB-19, in the assay on SN12C and with SK-OV-3 was > 100 µM (inactive) in each case. Besides, the GI50 in the assay on KM12 is > 100 µM (inactive); in the assay on NCI-H23, > 100 µM (inactive); with CAKI-1, 5.9 µM (inactive); in the assay on HCT-116, > 100 µM (inactive); in the assay on SF-539, > 100 µM (inactive); in the assay on M19-MEL, > 100 µM (inactive). Moreover, the GI50 in the assay with OVCAR-8 and in the assay on M14 was > 100 µM (inactive) in each case.
For the compound `NCCC1CN(C(=O)OCc2ccccc2)c2ccccc21` (centres undefined), the GI50 with RPMI-8226 was 12.8 µM (inactive); in the assay with OVCAR-5, 17.1 µM (inactive); in the assay with NCI-H522 it was 14.5 µM (inactive); in the assay with A498, > 37.2 µM (inactive); in the assay on MDA-N, 13.5 µM (inactive); in the assay with SNB-19 it was 19.5 µM (inactive). For the same compound, the GI50 is 13.2 µM (inactive) with SN12C; 1.01 µM (active) in the assay with MCF7; 16.8 µM (inactive) with BT-549; > 42.4 µM (inactive) in the assay on SK-OV-3; 17.8 µM (inactive) with KM12; 15 µM (inactive) in the assay on NCI-H23. The GI50 in the assay on CAKI-1 was 21.4 µM (inactive); in the assay on MDA-MB-435 it was 14.8 µM (inactive); in the assay with HCT-116, 3.59 µM (inactive); in the assay with SF-539, 3.44 µM (inactive); in the assay on UACC-62 it was 15.6 µM (inactive); with OVCAR-8 it was 8.17 µM (inactive). Further, the GI50 with M14 was 13.8 µM (inactive).
